The compounds below were run against human APJ receptor (Homo sapiens (Human), UniProt P35414) (assay: [35S]GTPγS binding assay on membranes from CHO cells stably expressing human APJ receptor). Details: read-out: Activity hAPJ SPA EC50 IP.
Type: biochemical
How it was run: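 Membranes from CHO cells stably expressing FLAG-tagged human APJ; assay buffer GDP, MgCl2 and NaCl levels optimised beforehand. Incubation 90 min at RT, imager read-out. EC50 from non-linear regression on means of several independent experiments.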

Chain of human APJ receptor (P35414 whole entry): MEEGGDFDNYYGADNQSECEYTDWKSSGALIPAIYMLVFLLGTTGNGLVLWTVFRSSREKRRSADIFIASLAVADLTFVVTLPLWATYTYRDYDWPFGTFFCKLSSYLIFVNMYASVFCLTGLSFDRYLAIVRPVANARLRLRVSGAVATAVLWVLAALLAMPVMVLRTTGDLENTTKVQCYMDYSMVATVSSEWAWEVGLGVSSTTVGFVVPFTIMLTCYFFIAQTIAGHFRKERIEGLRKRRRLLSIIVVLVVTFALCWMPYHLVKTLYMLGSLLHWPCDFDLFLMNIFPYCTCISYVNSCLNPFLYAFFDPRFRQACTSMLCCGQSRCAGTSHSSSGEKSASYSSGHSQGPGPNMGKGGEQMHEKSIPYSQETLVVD

Compound	EC50 [nM]
COC[C@@H]1COc2ncccc2-c2nnc(NS(=O)(=O)[C@@H](C)[C@H](OC(C)C)c3ncc(C)cn3)n21 (single isomer, unassigned) [Example 68.0, (1R,2S)-N-((5R)-5-(methoxymethyl)-5,6-dihydropyrido[3,2-f][1,2,4]triazolo[4,3-d][1,4]oxazepin-3-yl)-1-(5-methyl-2-pyrimidinyl)-1-(2-propanyloxy)-2-propanesulfonamide or (1R,2S)-N-((5S)-5-(methoxymethyl)-5,6-dihydropyrido[3,2-f][1,2,4]triazolo[4,3-d][1,4]oxazepin-3-yl)-1-(5-methyl-2-pyrimidinyl)-1-(2-propanyloxy)-2-propanesulfonamide]	3900
COC[C@@H]1COc2cccnc2-c2nnc(NS(=O)(=O)[C@@H](C)[C@@H](OC(C)C)c3ncc(C)cn3)n21 (single isomer, unassigned) [Example 69.0, (1S,2S)-N-((5R)-5-(methoxymethyl)-5,6-dihydropyrido[2,3-f][1,2,4]triazolo[4,3-d][1,4]oxazepin-3-yl)-1-(5-methyl-2-pyrimidinyl)-1-(2-propanyloxy)-2-propanesulfonamide or (1S,2S)-N-((5S)-5-(methoxymethyl)-5,6-dihydropyrido[2,3-f][1,2,4]triazolo[4,3-d][1,4]oxazepin-3-yl)-1-(5-methyl-2-pyrimidinyl)-1-(2-propanyloxy)-2-propanesulfonamide]	230
COC[C@@H]1COc2cccnc2-c2nnc(NS(=O)(=O)[C@@H](C)[C@@H](OC(C)C)c3ncc(C)cn3)n21 (single isomer, unassigned) [Example 70.0, (1S,2S)-N-((5R)-5-(methoxymethyl)-5,6-dihydropyrido[2,3-f][1,2,4]triazolo[4,3-d][1,4]oxazepin-3-yl)-1-(5-methyl-2-pyrimidinyl)-1-(2-propanyloxy)-2-propanesulfonamide or (1S,2S)-N-((5S)-5-(methoxymethyl)-5,6-dihydropyrido[2,3-f][1,2,4]triazolo[4,3-d][1,4]oxazepin-3-yl)-1-(5-methyl-2-pyrimidinyl)-1-(2-propanyloxy)-2-propanesulfonamide]	1210
COc1ccc2c(c1)-c1nnc(NS(=O)(=O)[C@@H](C)[C@@H](OC(C)C)c3ncc(C)cn3)n1C(CO)CO2 (single isomer, unassigned) [Example 150.0, (1S,2S)-N-((5R)-5-(hydroxymethyl)-10-methoxy-5,6-dihydro[1,2,4]triazolo[4,3-d][1,4]benzoxazepin-3-yl)-1-(5-methyl-2-pyrimidinyl)-1-(2-propanyloxy)-2-propanesulfonamide or (1S,2S)-N-((5S)-5-(hydroxymethyl)-10-methoxy-5,6-dihydro[1,2,4]triazolo[4,3-d][1,4]benzoxazepin-3-yl)-1-(5-methyl-2-pyrimidinyl)-1-(2-propanyloxy)-2-propanesulfonamide]	1880
COc1ccc2c(c1)-c1nnc(NS(=O)(=O)[C@@H](C)[C@@H](OC(C)C)c3ncc(C)cn3)n1C(CO)CO2 (single isomer, unassigned) [Example 151.0, (1S,2S)-N-((5R)-5-(hydroxymethyl)-10-methoxy-5,6-dihydro[1,2,4]triazolo[4,3-d][1,4]benzoxazepin-3-yl)-1-(5-methyl-2-pyrimidinyl)-1-(2-propanyloxy)-2-propanesulfonamide or (1S,2S)-N-((5S)-5-(hydroxymethyl)-10-methoxy-5,6-dihydro[1,2,4]triazolo[4,3-d][1,4]benzoxazepin-3-yl)-1-(5-methyl-2-pyrimidinyl)-1-(2-propanyloxy)-2-propanesulfonamide]	1270
COCC1COc2ccc(OC)cc2-c2nnc(NS(=O)(=O)[C@@H](C)[C@@H](OC(C)C)c3ncc(C)cn3)n21 (single isomer, unassigned) [Example 152.0, (1S,2S)-N-((5R)-10-methoxy-5-(methoxymethyl)-5,6-dihydro[1,2,4]triazolo[4,3-d][1,4]benzoxazepin-3-yl)-1-(5-methyl-2-pyrimidinyl)-1-(2-propanyloxy)-2-propanesulfonamide or (1S,2S)-N-((5S)-10-methoxy-5-(methoxymethyl)-5,6-dihydro[1,2,4]triazolo[4,3-d][1,4]benzoxazepin-3-yl)-1-(5-methyl-2-pyrimidinyl)-1-(2-propanyloxy)-2-propanesulfonamide]	37
COCC1COc2ccc(OC)cc2-c2nnc(NS(=O)(=O)[C@@H](C)[C@@H](OC(C)C)c3ncc(C)cn3)n21 (single isomer, unassigned) [Example 153.0, (1S,2S)-N-((5R)-10-methoxy-5-(methoxymethyl)-5,6-dihydro[1,2,4]triazolo[4,3-d][1,4]benzoxazepin-3-yl)-1-(5-methyl-2-pyrimidinyl)-1-(2-propanyloxy)-2-propanesulfonamide or (1S,2S)-N-((5S)-10-methoxy-5-(methoxymethyl)-5,6-dihydro[1,2,4]triazolo[4,3-d][1,4]benzoxazepin-3-yl)-1-(5-methyl-2-pyrimidinyl)-1-(2-propanyloxy)-2-propanesulfonamide]	250
Cc1cnc([C@H](OC(C)C)[C@H](C)S(=O)(=O)Nc2nnc3n2[C@H](CO)OCc2ccc(C(F)(F)F)cc2-3)nc1 (single isomer, unassigned) [Example 156.0, (1S,2S)-N-((R)-5-(hydroxymethyl)-10-(trifluoromethyl)-5,6-dihydrobenzo[f][1,2,4]triazolo[4,3-d][1,4]oxazepin-3-yl)-1-isopropoxy-1-(5-methylpyrimidin-2-yl)propane-2-sulfonamide or (1S,2S)-N-((S)-5-(hydroxymethyl)-10-(trifluoromethyl)-5,6 dihydrobenzo[f][1,2,4]triazolo[4,3-d][1,4]oxazepin-3-yl)-1-isopropoxy-1-(5-methylpyrimidin-2-yl)propane-2-snlfonamide]	2110
Cc1cnc([C@H](OC(C)C)[C@H](C)S(=O)(=O)Nc2nnc3n2C(CO)COc2ccc(C(F)(F)F)cc2-3)nc1 (single isomer, unassigned) [Example 157.0, (1S,2S)-N-((R)-5-(hydroxymethyl)-10-(trifluoromethyl)-5,6-dihydrobenzo[f][1,2,4]triazolo[4,3-d][1,4]oxazepin-3-yl)-1-isopropoxy-1-(5-methylpyrimidin-2-yl)propane-2-sulfonamide or (1S,2S)-N-((S)-5-(hydroxymethyl)-10-(trifluoromethyl)-5,6-dihydrobenzo[f][1,2,4]triazolo[4,3-d][1,4]oxazepin-3-yl)-1-isopropoxy-1-(5-methylpyrimidin-2-yl)propane-2-sulfonamide]	> 12500
COC[C@@H]1COc2ccc(OC)nc2-c2nnc(NS(=O)(=O)[C@@H](C)[C@H](C)c3ncc(OC)cn3)n21 (stereo in doubt) [Example 3.0, (2S,3R)-N-((5R)-10-methoxy-5-(methoxymethyl)-5,6-dihydropyrido[2,3-f][1,2,4]triazolo[4,3-d][1,4]oxazepin-3-yl)-3-(5-methoxy-2-pyrimidinyl)-2-butanesulfonamide and (2S,3R)-N-((5S)-10-methoxy-5-(methoxymethyl)-5,6-dihydropyrido[2,3-f][1,2,4]traizolo[4,3-d][1,4]oxazepin-3-yl)-3-(5-methoxy-2-pyrimidinyl)-2-butanesulfonamide]	490
COC[C@@H]1COc2ccc(F)cc2-c2nnc(NS(=O)(=O)[C@@H](C)[C@H](OC)c3ncc(C)cn3)n21 (stereo in doubt) [Example 24.0, (1R,2S)-N-((5R)-10-fluoro-5-(methoxymethyl)-5,6-dihydro[1,2,4]traizolo[4,3-d][1,4]benzoxazepin-3-yl)-1-methoxy-1-(5-methyl-2-pyrimidinyl)-2-propanesulfonamide and (1R,2S)-N-((5S)-10-fluoro-5-(methoxymethyl)-5,6-dihydro[1,2,4]triazolo[4,3-d][1,4]benzoxazepin-3-yl)-1-methoxy-1-(5-methyl-2-pyrimidinyl)-2-propanesulfonamide]	260
COC[C@@H]1COc2cnccc2-c2nnc(NS(=O)(=O)[C@@H](C)[C@@H](OC(C)C)c3ncc(C)cn3)n21 (stereo in doubt) [Example 43.0, (1S,2S)-N-((5R)-5-(methoxymethyl)-5,6-dihydropyrido[4,3-f][1,2,4]triazolo[4,3-d][1,4]oxazepin-3-yl)-1-(5-methyl-2-pyrimidinyl)-1-(2-propanyloxy)-2-propanesulfonamide and (1S,2S)-N-((5S)-5-(methoxymethyl)-5,6-dihydropyrido[4,3-f][1,2,4]traizolo[4,3-d][1,4]oxazepin-3-yl)-1-(5-methyl-2-pyrimidinyl)-1-(2-propanyloxy)-2-propanesulfonamide]	1200
C=C1COc2ccccc2-c2nnc(NS(=O)(=O)[C@@H](C)[C@@H](OC(C)C)c3ncc(C)cn3)n21 [Example 17.0, (1S,2S)-N-(5-Methylidene-5,6-dihydro[1,2,4]triazolo[4,3-d][1,4]benzoxazepin-3-yl)-1-(5-methyl-2-pyrimidinyl)-1-(2-propanyloxy)-2-propanesulfonamide]	1000
C=C1COc2ncccc2-c2nnc(NS(=O)(=O)[C@@H](C)[C@@H](OC(C)C)c3ncc(Cl)cn3)n21 [Example 60.0, (1S,2S)-1-(5-chloro-2-pyrimidinyl)-N-(5-methylidene-5,6-dihydropyrido[3,2-f][1,2,4]triazolo[4,3-d][1,4]oxazepin-3-yl)-1-(2-propanyloxy)-2-propanesulfonamide]	850

What follows are compounds tested on heart failure rats (assay: Cardiac contractility in vivo in heart failure rat model). Details: alone, acute settings.
Procedure: Evidence for Improvement in Cardiac Contractility In Vivo in Heart Failure Rat Model Based on ex vivo findings in isolated heart assay, APJ agonists are dosed in vivo to investigate the translation of cardiac contractility in in vivo settings. Male Lewis rats (Charles River, USA) at 2-3 months of age are used for the study. Heart failure is induced by permanent ligation of the left descending coronary artery which results in injury to the heart with an ejection fraction of <35%. APJ agonists are administered dose dependently acutely for a period of 30 min. Administration of APJ agonists lead to an increase in cardiac contractility as measured by dP/dtmax (derivative of left ventricular pressure).

Compound	improvement in contractility or ejection fraction
C[C@H](CS)C(=O)N1CCC[C@H]1C(=O)O [Captopril, captopril]	does not show a marked improvement in contractility or ejection fraction acutely
